Read-outs that look alike come from different tables or passages of the source.
Key:
Streptococcus Pneumonia = conditions: Streptococcus pneumoniae, 7 h
[1] = test system: Streptococcus Pyogenes (Lancefield group A); conditions: 18 h

SMILES: C[S+](C)[O-] [DMSO, Dimethyl sulfoxide]
- Viability of S. pneumonia (Streptococcus Pneumonia; 5 %): 75.45%
- Viability of S. pneumonia (Streptococcus Pneumonia; 10 %): 40.18%
- S. pyogenes viability (%) ([1]; 5 %): 96.66%
- Viability of S. pyogenes (%) ([1]; 5 %): 96.66%
- S. pyogenes viability (%) ([1]; 8 %): 9.96%
- Viability of S. pyogenes (%) ([1]; 10 %): 14.50%
- Viability of S. pyogenes (%) ([1]; 20 %): 5.14%

From patent publication US9487749B2 (priority 2009, dated 2016)
